Results reported in patent US11352399B2, “Peptide for toll-like receptor (TLR) inhibition and pharmaceutical composition comprising same” (GENESEN CO., LTD., priority 2017, dated 2022).

Tests used:
[1] = target: T1, hTLR4 (human TLR4) (Homo sapiens, UniProt O00206); assay: SEAP activity (NF-κB activity) in HEK-Blue-hTLR4 cells; type: cell-based
T1 construct: host or cells: HEK-Blue-hTLR4 (HEK293-derived reporter line)
Method: HEK-Blue™-hTLR4 cells were dispensed into 24-well plates (BD Biosciences) to a cell number of 2×10^5 cells/well, and incubation was performed overnight. The next day, the culture was removed and medium replacement was performed. Then, a portion (200 μl) of the culture was transferred to a microcentrifuge tube and heated at 65° C. for 10 minutes using a heating block (FINEPCR. Co., Seoul, Korea). Subsequently, the culture was transferred to 96-well plates (BD Biosciences), and absorbance was measured at 405 nm using the HEK-Blue™ detection kit (InvivoGen) and a microplate reader spectrophotometer (Molecular Devices Inc., Silicon Valley, Calif., USA), to analyze an expression level of SEAP (secreted alkaline phosphatase).
To this end, the inducible secreted embryonic alkaline phosphatase (SEAP) reporter gene was placed under the control of an IL-12 p40 minimal promoter (IL-12 p40 is produced by activation of NF-κB and AP-1 (activator protein 1) after stimulation of TLR4) which contains sites where DNAs of NF-κB and AP-1 bind. Then, HEK-Blue™-hTLR4 cells were treated with varying concentrations of TIP or TIP (TIP W/O CPP), to which CPP is not linked, at 12.5, 25, 50 μM, and then an average value of SEAP activity was calculated to measure TLR4 activity. The results are illustrated in FIGS. 1(a) and 1(b).
The results are illustrated in FIGS. 12(a) and 12(b).

[2] = tested on: NF-κB (p-p65); assay: Confocal microscopy of NF-κB activity (p-p65) in LPS-treated RAW 264.7 cells; type: cell-based, mouse; details: LPS together with TIP1, FIG. 3
Method: RAW 264.7 cells and THP1 cells were dispensed into 24-well plates to a cell number of 2×10^5 cells/well, and then grown in an incubator overnight. Subsequently, combined treatment with TIP1 and LPS was performed. After 24 hours, the RAW 264.7 cells and the THP1 cells were fixed with 3.7% formaldehyde (Sigma-Aldrich Co. LLC) for 15 minutes, and immersed into 0.2% Triton X-100 (AMRESCO, Solon, Ohio, USA) for 15 minutes. Then, washing with PBS was performed three times and blocking with 2% BSA solution was performed. The blocked cells were incubated for 2 hours with TIP1-FITC (25 μM; Peptron, Inc., Daejeon, Korea), p-p65, TLR4, Myd88, TOM20 (1:1000; Santa Cruz Biotechnology Inc.), and NLRP3 (Adipogen) antibodies. Then, washing with PBS was performed three times. Subsequently, the cells were incubated with AlexaFluor […] and/or 488 and/or 546-conjugated secondary antibodies (Invitrogen, Carlsbad, Calif., USA) for 1 hour, and washed three times with PBS. Subsequently, the cells were stained at room temperature for 15 minutes using 5 μM Hoechst 33258 (Sigma-Aldrich Co.), and the number of the fluorescently stained cells was counted using a confocal laser scanning microscope (LSM-700, Carl Zeiss MicroImaging GmbH). The images were analyzed using Zen 2009 software.
The results are illustrated in FIG. 3.

[3] = tested on: collagen-induced arthritis (CIA) model DBA/1J mice; assay: Collagen-induced arthritis (CIA) model; type: in vivo, mouse
Method: Specifically, chicken collagen type II (Sigma-Aldrich Co. LLC) and complete Freund's adjuvant (Sigma-Aldrich Co. LLC.) were mixed at 1:1 and emulsified. Then, 100 μg of the emulsified collagen solution was injected intradermally into the mouse tail to induce primary immunization, which was designated day 0. After 14 days of the primary immunization, the emulsified collagen solution was injected again intradermally into the mouse tail to induce secondary immunization (boosting).
These plans included a total of seven experimental groups (n=8) and named as follows: (1) Non-treated, normal group (normal); (2) control (vehicle-treated) (CIA, n=8); (3) 2.5 nmol/g TIP1-treated group (CIA-TIP1 (2.5 nmol/g)); (4) 5 nmol/g TIP1-treated group (CIA-TIP1 (5 nmol/g)); (5) 10 nmol/g TIP1-treated group (CIA-TIP1 (10 nmol/g)); (6) 5 μg/g prednisolone (conventional therapeutic agent for arthritis)-treated group (CIA-prednisolone (5 μg/g)); (7) 10 nmol/g TIP1-treated group in post-arthritis phase (PAP) (PAP CIA-TIP1 (10 nmol/g)). TIP1 and prednisolone were dissolved in saline and injected intraperitoneally. Then, changes in behavioral development and disorders such as apparent symptoms and body weight, mouse squeaking, foot volume, and arthritis index were analyzed. The results are illustrated in FIGS. 19(a) and 19(b) and 20(a)-20(d).
Then, the mice were sacrificed on day 45 and joint tissues were sampled. Subsequently, 3D images and bone mineral density (BMD) of the joint tissues were analyzed through micro-computed tomography (Micro-CT). […] The results are illustrated in FIGS. 21 and 22.

[4] = tested on: liver tissues of C57BL/6J mice; assay: Cytokine expression in liver tissue of LPS-treated mice (Western blotting); type: in vivo, mouse; details: LPS and TIP1, 2 hours
[5] = tested on: LPS-induced sepsis model BALB/c mice; assay: Survival rate in LPS-induced sepsis model; type: in vivo, mouse
Method: The control was injected with the same volume of PBS. The results are illustrated in FIG. 18.

[6] = tested on: NLRP3 inflammasome; assay: IL-1β secretion (ELISA) in LPS/ATP-treated mBMDM cells; type: cell-based, mouse; details: TIP1 and LPS/ATP
[7] = TIP1 2.5, 5, 10 nmol/g i.p. daily, compared with prednisolone 5 mg/kg
[8] = severe sepsis model, LPS 10 μg/g, TIP1 10 nmol/g

T1 sequence (O00206 24-839): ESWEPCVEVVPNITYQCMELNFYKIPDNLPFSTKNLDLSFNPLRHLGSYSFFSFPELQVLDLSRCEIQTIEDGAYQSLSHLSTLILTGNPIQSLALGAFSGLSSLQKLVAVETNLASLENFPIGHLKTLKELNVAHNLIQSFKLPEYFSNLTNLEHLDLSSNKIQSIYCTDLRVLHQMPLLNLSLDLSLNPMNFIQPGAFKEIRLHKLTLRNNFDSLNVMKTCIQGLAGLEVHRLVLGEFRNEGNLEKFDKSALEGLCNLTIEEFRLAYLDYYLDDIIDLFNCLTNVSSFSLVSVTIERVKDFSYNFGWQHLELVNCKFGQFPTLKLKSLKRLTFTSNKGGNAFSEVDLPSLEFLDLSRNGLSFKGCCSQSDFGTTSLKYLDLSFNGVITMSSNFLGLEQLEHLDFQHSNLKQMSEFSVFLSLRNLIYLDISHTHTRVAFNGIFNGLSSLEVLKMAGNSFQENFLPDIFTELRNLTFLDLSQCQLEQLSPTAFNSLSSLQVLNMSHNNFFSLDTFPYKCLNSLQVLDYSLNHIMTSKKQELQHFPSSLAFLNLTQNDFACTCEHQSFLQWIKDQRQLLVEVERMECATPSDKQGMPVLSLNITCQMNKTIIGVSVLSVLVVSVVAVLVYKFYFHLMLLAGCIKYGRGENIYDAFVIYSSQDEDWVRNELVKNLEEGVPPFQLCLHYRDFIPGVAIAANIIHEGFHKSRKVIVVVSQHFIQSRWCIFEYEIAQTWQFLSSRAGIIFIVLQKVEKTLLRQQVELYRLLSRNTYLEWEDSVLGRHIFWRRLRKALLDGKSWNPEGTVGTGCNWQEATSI
T1 sequence (Q9Y6Y9 17-160 partner limits assumed): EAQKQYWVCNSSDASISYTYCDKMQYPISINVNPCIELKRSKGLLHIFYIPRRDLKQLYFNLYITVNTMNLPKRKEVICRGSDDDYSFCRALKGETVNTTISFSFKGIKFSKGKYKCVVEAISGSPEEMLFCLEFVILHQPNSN

RQIKIWFQNRRMKWKKSHCRVLLI (TIP1)
LPS-induced SEAP activity ([1]; TIP 12.5, 25, 50 μM, then LPS, FIG. 1(a)): decreased LPS-induced SEAP activity in a concentration-dependent manner | NF-κB activity (SEAP activity) ([1]; together with LPS, FIG. 12(a)): highest inhibitory effect on NF-κB activity | NF-κB activity (LPS-induced p65 phosphorylation level in the nucleus) [2]: NF-κB activity was decreased | arthritis index increase [3, 7]: inhibited | body weight loss caused by induction of arthritis [3, 7]: inhibited | foot volume [3, 7]: inhibited | squeaking [3, 7]: inhibited | severely swollen foot (visual observation) ([3]; TIP1 i.p., FIG. 19(b)): alleviated similarly to the normal mice | histopathological modification in cartilage, subchondral bone, femur, tibia and meniscus (H&E) ([3]; knee joint, once daily for 30 days): decreased | bones damaged by the CIA model (Micro-CT 3D image, bone mineral density) ([3]; once daily for 30 days, sacrificed day 45): alleviated similarly to the normal mice | LPS-induced expression level of IL-6 in liver tissue [4]: remarkably decreased | LPS-induced expression level of TNF-α in liver tissue [4]: remarkably decreased | survival rate compared with only LPS ([5]; BALB/c mice, TIP1 10 nmol/g and LPS 5 or 10 μg/g, 5 days): increased survival rate | survival rate maintained for 5 days ([5]; mild sepsis model, LPS 5 μg/g, TIP1 10 nmol/g): 30% | decrease of survival rate after two days [5, 8]: 90% | survival rate maintained for one day [5, 8]: 100% | secretion level of IL-1β [6]: decreased
